Results published in patent publication US11390631B1, “Benzodiazepine derivatives as RSV inhibitors” (priority 2015, dated 2022).
Like-named read-outs stand apart in the source and are kept apart here.

Assays:
[1] = system: Human RSV-A (“Long” strain); assay: RSV-A assay: inhibition of cytopathic effect in Hep-2 cells, ATPlite readout; assay type: cell-based, Human respiratory syncytial virus (HRSV); settings: human respiratory syncytial virus, read-out: Human RSV-A (“Long” strain) EC50
Outline: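 Hep-2 cells (8,000/well) were infected with RSV-A Long at MOI 0.1 alongside duplicate 2-fold compound dilutions. After 5 days, cell viability was read by ATPlite luminescence to give EC50. CC50 came from a parallel plate without virus.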

[2] = system: RSV-B, genotype B, strain 9320; assay: RSV-B assay: A549 cells infected with RSV-B, qPCR or ATPlite readout; assay type: cell-based, Human respiratory syncytial virus (HRSV); settings: human respiratory syncytial virus
Excerpt: Hep-2 cells, (originally derived from tumors grown in irradiated-cortisonised weanling rats that had been injected with epidermoid carcinoma tissue from a person's larynx, but later found to be indistinguishable from HeLa cells by PCR DNA analysis), were used for the culturing of genotype B, strain 9320. Flasks were inoculated with RSV-B and viral stocks were collected once cytopathic effect (CPE) was greater than […]. Viral stocks in 25% o sucrose media were snap frozen using liquid nitrogen to increase viral stability. Viral stock titers were quantified by tissue culture infectious dose 50% o (TCID50) using 8,000 cells per well and 5-fold viral dilutions across a 96-well plate, cultured for 4 days. Viral stock titers were also quantified by a plaque forming unit assay, as described elsewhere.
The assay is run as follows: A549 cells (originally derived through explant culture from a person's carcinomatous lung tissue) are seeded into the inner 60 wells of a 96-well plate at 3,000 cells per well in a volume of 50 μL using A549 growth media (F-12K Media, 1% Penn/Strep, 1% nonessential amino acids, 10% heat-inactivated FBS). 2-fold serial dilutions of control and test compounds are added to the wells in duplicate in a total volume of 25 μL. Viral stock is then added to the wells at a multiplicity of infection (MOI) of 0.5 in a volume of 25 μL, bringing the total volume of each well to 100 μL. The MOI is calculated using the PFU/mL, or TCID50 if unavailable. Each 96-well plate has a control column of 6 wells with cells and virus but no compound (negative control, max CPE), a column with cells but no compound or virus (positive control, minimum CPE), and a column with no cells or virus or compound (background plate/reagent control). The control wells with cells but no virus are given an additional 25 uL of growth media containing an equal quantity of sucrose as those wells receiving the viral stock in order to keep consistent in media and volume conditions. The outer wells of the plate are filled with 125 μL of moat media (DMEM, 1% Penn/Strep) to act as a thermal and evaporative moat around the test wells. 6 days post infection, the plates are read using qPCR or ATP lite (50 uL added per well), which quantifies the amount of ATP (a measure of cell health) present in each well. Assay plates treated with APTlite are read using the Envision luminometer. […] EC50 ranges are as follows: A<0.4 μM; B 0.4-0.8 μM; C>0.8 μM.

[3] = A549, read-out: Human RSV-B EC50
[4] = 120 h, Hep-2 cells, MOI 0.1, 5-day incubation, ATPlite
[5] = A549 cells infected with RSV-B strain 9320, MOI 0.5, read-out: Human RSV-B EC50

Row | Compound | EC50 ([1]; HEp-2, 120 h) [nM] | EC50 [2, 3] [nM] | EC50 [1, 4] [nM] | EC50 [2, 5] [nM]
1 | O=C1Nc2ccccc2C(c2ccccc2)=NC1Nc1ccc(-c2ccccc2)nn1 (stereo not shown) [Example 95] | 400 to 800 | > 800 | – | –
2 | CN(C)c1ccc(-c2nnc(NC3N=C(c4ccccc4)c4ccccc4NC3=O)o2)nc1 (stereo not shown) [Example 108] | > 800 | > 800 | – | –
3 | O=C1Nc2ccccc2C(c2ccccc2)=NC1Nc1nnc(-c2cccnc2N2CCOCC2)o1 (stereo not shown) [Example 120] | < 400 | 400 to 800 | – | –
4 | O=C1Nc2ccccc2C(c2ccccc2)=NC1Nc1nnc(-c2ccc(C(F)(F)F)cc2N2CCOCC2)o1 (stereo not shown) [Example 123] | < 400 | 400 to 800 | – | –
5 | O=C1Nc2ccccc2C(c2ccccc2)=NC1Nc1nnc(-c2ccc(N3CCOCC3)cc2)o1 (stereo not shown) [Example 124] | – | < 400 | – | –
6 | O=C1Nc2ccccc2C(c2ccccc2)=NC1Nc1nnc(-c2ccccc2N2CCOCC2)o1 (stereo not shown) [Example 125] | – | 400 to 800 | – | –
7 | O=C1Nc2ccccc2C(c2ccccc2)=NC1Nc1nnc(-c2ccc(F)cc2N2CCOCC2)o1 (stereo not shown) [Example 127] | < 400 | < 400 | – | –
8 | O=C1Nc2ccccc2C(c2ccccc2)=NC1Nc1nnc(-c2ccc(-n3cccn3)cc2N2CCOCC2)o1 (stereo not shown) [Example 129] | < 400 | < 400 | – | –
9 | N#Cc1ccc(-c2nnc(NC3N=C(c4ccccc4)c4ccccc4NC3=O)o2)c(N2CCOCC2)c1 (stereo not shown) [Example 131] | < 400 | < 400 | – | –
10 | O=C1Nc2ccccc2C(c2ccccc2)=N[C@@H]1Nc1nnc(-c2ncc(F)cc2N2CCOCC2)o1 [Example 136, (S)-3-((5-(5-fluoro-3-morpholinopyridin-2-yl)-1,3,4-oxadiazol-2-yl)amino)-5-phenyl-1,3-dihydro-2H-benzo[e][1,4]diazepin-2-one] | < 400 | < 400 | – | –
11 | O=C1Nc2ccccc2C(c2ccccc2)=NC1Nc1nnc(-c2ncc(C(F)(F)F)cc2N2CCOCC2)o1 (stereo not shown) [Example 139] | – | – | < 400 | < 400
12 | Cc1ccc(-c2nnc(NC3N=C(c4ccccc4)c4ccccc4NC3=O)o2)c(N2CCOCC2)n1 (stereo not shown) [Example 144] | < 400 | < 400 | – | –
13 | N#Cc1ccc(-c2nnc(N[C@H]3N=C(c4ccccc4)c4ccccc4NC3=O)o2)c(N2CCOCC2)n1 [Example 153] | < 400 | < 400 | – | –
14 | Cn1c(N2CCOCC2)c(-c2nnc(N[C@H]3N=C(c4ccccc4)c4ccccc4NC3=O)o2)ccc1=O [Example 155] | < 400 | < 400 | – | –
15 | Cc1nc(N2CCOCC2)c(-c2nnc(N[C@H]3N=C(c4ccccc4)c4ccccc4NC3=O)o2)cc1C#N [Example 158] | < 400 | < 400 | – | –
16 | N#Cc1cnc(-c2nnc(N[C@H]3N=C(c4ccccc4)c4ccccc4NC3=O)o2)c(N2CCOCC2)c1 [Example 160] | – | < 400 | – | –
17 | O=C1Nc2ccccc2C(c2ccccc2)=N[C@@H]1Nc1nnc(-c2ncc(Br)cc2N2CCOCC2)o1 [Example 168] | < 400 | < 400 | – | –
18 | O=C1Nc2ccccc2C(c2ccccc2)=N[C@@H]1Nc1nnc(-c2ncc(C3CC3)cc2N2CCOCC2)o1 [Example 169] | < 400 | < 400 | – | –
19 | N#Cc1cc(-c2nnc(N[C@H]3N=C(c4ccccc4)c4ccccc4NC3=O)o2)c(N2CCOCC2)nc1C1CC1 [Example 175] | < 400 | 400 to 800 | – | –
20 | O=C1Nc2ccccc2C(c2ccccc2)=N[C@@H]1Nc1nnc(-c2oc3ccccc3c2N2CCOCC2)o1 [Example 179] | < 400 | < 400 | – | –
21 | CN1CCN(c2ccccc2-c2nnc(NC3N=C(c4ccccc4)c4ccccc4NC3=O)o2)CC1 (stereo not shown) [Example 224] | > 800 | < 400 | – | –

Row | Compound | EC50 ([1]; HEp-2, 120 h) [nM] | EC50 [2, 3] [nM] | EC50 [1, 4] [nM] | EC50 [2, 5] [nM]
22 | O=C1Nc2ccccc2C(c2ccccc2)=N[C@@H]1Nc1nnc(-c2cccnc2N2CCOCC2)o1 [Example 242] | < 400 | < 400 | – | –
23 | C[C@@H]1COCCN1c1ncccc1-c1nnc(NC2N=C(c3ccccc3)c3ccccc3NC2=O)o1 (stereo partly shown) [Example 245] | < 400 | 400 to 800 | – | –
24 | O=C1Nc2ccccc2C(c2ccccc2)=N[C@@H]1Nc1nnc(-c2ncc(C(F)(F)F)cc2N2C3CCC2COC3)o1 [Example 250] | < 400 | < 400 | – | –
25 | O=C1Nc2ccccc2C(c2ccccc2)=N[C@@H]1Nc1nnc(-c2ncc(C(F)(F)F)cc2N2CC3CCC(C2)O3)o1 [Example 251] | < 400 | < 400 | – | –
26 | Cc1ccc(-c2nnc(N[C@H]3N=C(c4ccccc4)c4ccccc4NC3=O)o2)c(N2CCOCC2)n1 [Example 252] | < 400 | < 400 | – | –
27 | O=C1Nc2ccccc2C(c2ccccc2)=N[C@@H]1Nc1nnc(-c2ncc(C(F)(F)F)cc2N2CCOCC2)o1 [Example 253] | – | – | < 400 | < 400
28 | C[C@H]1CN(c2ncccc2-c2nnc(NC3N=C(c4ccccc4)c4ccccc4NC3=O)o2)CCO1 (stereo partly shown) [Example 263] | 400 to 800 | 400 to 800 | – | –
29 | COC1CCN(c2cc(C(F)(F)F)cnc2-c2nnc(N[C@H]3N=C(c4ccccc4)c4ccccc4NC3=O)o2)CC1 [Example 268] | > 800 | 400 to 800 | – | –
30 | O=C1Nc2ccccc2C(c2ccccc2)=N[C@@H]1Nc1nnc(-c2ncc(C(F)(F)F)cc2N2CCC(F)CC2)o1 [Example 269] | > 800 | 400 to 800 | – | –
31 | Cc1nc(-c2nnc(N[C@H]3N=C(c4ccccc4)c4ccccc4NC3=O)o2)c(N2CCOCC2)s1 [Example 272] | < 400 | < 400 | – | –
32 | O=C1Nc2ccccc2C(c2ccccc2)=N[C@@H]1Nc1nnc(-c2ccc(C(F)(F)F)nc2N2CC3CCC(C2)O3)o1 [Example 276] | 400 to 800 | > 800 | – | –
33 | C[C@@H]1CN(c2cc(C(F)(F)F)cnc2-c2nnc(N[C@H]3N=C(c4ccccc4)c4ccccc4NC3=O)o2)CCO1 [Example 277] | < 400 | < 400 | – | –
34 | C[C@H]1CN(c2cc(C(F)(F)F)cnc2-c2nnc(N[C@H]3N=C(c4ccccc4)c4ccccc4NC3=O)o2)CCO1 [Example 278] | < 400 | < 400 | – | –
35 | COCCOc1cc(C#N)ccc1-c1nnc(N[C@H]2N=C(c3ccccc3)c3ccccc3NC2=O)o1 [Example 300] | < 400 | < 400 | – | –
36 | N#CCCNc1cc(C(F)(F)F)cnc1-c1nnc(N[C@H]2N=C(c3ccccc3)c3ccccc3NC2=O)o1 [Example 303] | < 400 | < 400 | – | –
37 | N#Cc1cnc(-c2nnc(N[C@H]3N=C(c4ccccc4)c4ccccc4NC3=O)o2)c(N2CC3CCC(C2)O3)c1 [Example 304] | < 400 | < 400 | – | –
38 | O=C1Nc2ccccc2C(c2ccccc2)=N[C@@H]1Nc1nnc(-c2nc3ccccc3cc2N2CCOCC2)o1 [Example 322] | < 400 | < 400 | – | –
39 | O=C1Nc2ccccc2C(c2ccccc2)=N[C@@H]1Nc1nnc(-c2ncsc2N2CCOCC2)o1 [Example 336] | < 400 | < 400 | – | –
40 | O=C1Nc2ccccc2C(c2ccccc2)=N[C@@H]1Nc1nnc(-c2nc(C3CC3)sc2N2CCOCC2)o1 [Example 338] | < 400 | < 400 | – | –
41 | O=C1Nc2ccccc2C(c2ccccc2)=N[C@@H]1Nc1nnc(-c2nc(C(F)(F)F)sc2N2CCOCC2)o1 [Example 339] | < 400 | < 400 | – | –
